Assay results from the supplement of paper PMC12463676, “Small-molecule dissolution of stress granules by redox modulation benefits ALS models” (Nature Chemical Biology, 2025).

Key:
potassium arsenate = compound: O=[As]([O-])(O)O.[K+] [potassium arsenate]; experiment: thermal stability z-score vs DMSO; higher = more thermally stabilized by treatment; settings: HeLa; arsenate concentration 1 mM
Protocol: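 Cellular thermal proteome profiling in HeLa cells treated with 1 mM arsenate for 1 h (DMSO pretreatment), heated to ten temperatures (37-66.3 °C). Soluble protein was quantified by TMT mass spectrometry relative to DMSO controls; the thermal stability score was transformed to a z-score; mean of n = 3 experiments.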

lipoamide = compound: NC(=O)CCCCC1CCSS1 [lipoamide]; experiment: as above; settings: HeLa, lipoamide concentration 100 µM
Protocol: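 Cellular thermal proteome profiling in HeLa cells. Cells were treated with 100 µM lipoamide for 1 h, with or without 1 mM arsenate for a further 1 h, then heated to ten temperatures (37-66.3 °C), and soluble protein was quantified by TMT mass spectrometry relative to 0.1% DMSO controls. The thermal stability score (sum of log2 fold changes minus the abundance score) was transformed to a z-score; mean of n = 3 experiments.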

[1] = arsenate co-treatment: 1 mM arsenate 1 h
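Further: each temperature applied for 3 min, abundance score taken as mean log2 fold change at the two lowest temperatures, z-score obtained by mean subtraction and division by SD.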

UniProt Q9NR09, sequence (Q9NR09 whole entry): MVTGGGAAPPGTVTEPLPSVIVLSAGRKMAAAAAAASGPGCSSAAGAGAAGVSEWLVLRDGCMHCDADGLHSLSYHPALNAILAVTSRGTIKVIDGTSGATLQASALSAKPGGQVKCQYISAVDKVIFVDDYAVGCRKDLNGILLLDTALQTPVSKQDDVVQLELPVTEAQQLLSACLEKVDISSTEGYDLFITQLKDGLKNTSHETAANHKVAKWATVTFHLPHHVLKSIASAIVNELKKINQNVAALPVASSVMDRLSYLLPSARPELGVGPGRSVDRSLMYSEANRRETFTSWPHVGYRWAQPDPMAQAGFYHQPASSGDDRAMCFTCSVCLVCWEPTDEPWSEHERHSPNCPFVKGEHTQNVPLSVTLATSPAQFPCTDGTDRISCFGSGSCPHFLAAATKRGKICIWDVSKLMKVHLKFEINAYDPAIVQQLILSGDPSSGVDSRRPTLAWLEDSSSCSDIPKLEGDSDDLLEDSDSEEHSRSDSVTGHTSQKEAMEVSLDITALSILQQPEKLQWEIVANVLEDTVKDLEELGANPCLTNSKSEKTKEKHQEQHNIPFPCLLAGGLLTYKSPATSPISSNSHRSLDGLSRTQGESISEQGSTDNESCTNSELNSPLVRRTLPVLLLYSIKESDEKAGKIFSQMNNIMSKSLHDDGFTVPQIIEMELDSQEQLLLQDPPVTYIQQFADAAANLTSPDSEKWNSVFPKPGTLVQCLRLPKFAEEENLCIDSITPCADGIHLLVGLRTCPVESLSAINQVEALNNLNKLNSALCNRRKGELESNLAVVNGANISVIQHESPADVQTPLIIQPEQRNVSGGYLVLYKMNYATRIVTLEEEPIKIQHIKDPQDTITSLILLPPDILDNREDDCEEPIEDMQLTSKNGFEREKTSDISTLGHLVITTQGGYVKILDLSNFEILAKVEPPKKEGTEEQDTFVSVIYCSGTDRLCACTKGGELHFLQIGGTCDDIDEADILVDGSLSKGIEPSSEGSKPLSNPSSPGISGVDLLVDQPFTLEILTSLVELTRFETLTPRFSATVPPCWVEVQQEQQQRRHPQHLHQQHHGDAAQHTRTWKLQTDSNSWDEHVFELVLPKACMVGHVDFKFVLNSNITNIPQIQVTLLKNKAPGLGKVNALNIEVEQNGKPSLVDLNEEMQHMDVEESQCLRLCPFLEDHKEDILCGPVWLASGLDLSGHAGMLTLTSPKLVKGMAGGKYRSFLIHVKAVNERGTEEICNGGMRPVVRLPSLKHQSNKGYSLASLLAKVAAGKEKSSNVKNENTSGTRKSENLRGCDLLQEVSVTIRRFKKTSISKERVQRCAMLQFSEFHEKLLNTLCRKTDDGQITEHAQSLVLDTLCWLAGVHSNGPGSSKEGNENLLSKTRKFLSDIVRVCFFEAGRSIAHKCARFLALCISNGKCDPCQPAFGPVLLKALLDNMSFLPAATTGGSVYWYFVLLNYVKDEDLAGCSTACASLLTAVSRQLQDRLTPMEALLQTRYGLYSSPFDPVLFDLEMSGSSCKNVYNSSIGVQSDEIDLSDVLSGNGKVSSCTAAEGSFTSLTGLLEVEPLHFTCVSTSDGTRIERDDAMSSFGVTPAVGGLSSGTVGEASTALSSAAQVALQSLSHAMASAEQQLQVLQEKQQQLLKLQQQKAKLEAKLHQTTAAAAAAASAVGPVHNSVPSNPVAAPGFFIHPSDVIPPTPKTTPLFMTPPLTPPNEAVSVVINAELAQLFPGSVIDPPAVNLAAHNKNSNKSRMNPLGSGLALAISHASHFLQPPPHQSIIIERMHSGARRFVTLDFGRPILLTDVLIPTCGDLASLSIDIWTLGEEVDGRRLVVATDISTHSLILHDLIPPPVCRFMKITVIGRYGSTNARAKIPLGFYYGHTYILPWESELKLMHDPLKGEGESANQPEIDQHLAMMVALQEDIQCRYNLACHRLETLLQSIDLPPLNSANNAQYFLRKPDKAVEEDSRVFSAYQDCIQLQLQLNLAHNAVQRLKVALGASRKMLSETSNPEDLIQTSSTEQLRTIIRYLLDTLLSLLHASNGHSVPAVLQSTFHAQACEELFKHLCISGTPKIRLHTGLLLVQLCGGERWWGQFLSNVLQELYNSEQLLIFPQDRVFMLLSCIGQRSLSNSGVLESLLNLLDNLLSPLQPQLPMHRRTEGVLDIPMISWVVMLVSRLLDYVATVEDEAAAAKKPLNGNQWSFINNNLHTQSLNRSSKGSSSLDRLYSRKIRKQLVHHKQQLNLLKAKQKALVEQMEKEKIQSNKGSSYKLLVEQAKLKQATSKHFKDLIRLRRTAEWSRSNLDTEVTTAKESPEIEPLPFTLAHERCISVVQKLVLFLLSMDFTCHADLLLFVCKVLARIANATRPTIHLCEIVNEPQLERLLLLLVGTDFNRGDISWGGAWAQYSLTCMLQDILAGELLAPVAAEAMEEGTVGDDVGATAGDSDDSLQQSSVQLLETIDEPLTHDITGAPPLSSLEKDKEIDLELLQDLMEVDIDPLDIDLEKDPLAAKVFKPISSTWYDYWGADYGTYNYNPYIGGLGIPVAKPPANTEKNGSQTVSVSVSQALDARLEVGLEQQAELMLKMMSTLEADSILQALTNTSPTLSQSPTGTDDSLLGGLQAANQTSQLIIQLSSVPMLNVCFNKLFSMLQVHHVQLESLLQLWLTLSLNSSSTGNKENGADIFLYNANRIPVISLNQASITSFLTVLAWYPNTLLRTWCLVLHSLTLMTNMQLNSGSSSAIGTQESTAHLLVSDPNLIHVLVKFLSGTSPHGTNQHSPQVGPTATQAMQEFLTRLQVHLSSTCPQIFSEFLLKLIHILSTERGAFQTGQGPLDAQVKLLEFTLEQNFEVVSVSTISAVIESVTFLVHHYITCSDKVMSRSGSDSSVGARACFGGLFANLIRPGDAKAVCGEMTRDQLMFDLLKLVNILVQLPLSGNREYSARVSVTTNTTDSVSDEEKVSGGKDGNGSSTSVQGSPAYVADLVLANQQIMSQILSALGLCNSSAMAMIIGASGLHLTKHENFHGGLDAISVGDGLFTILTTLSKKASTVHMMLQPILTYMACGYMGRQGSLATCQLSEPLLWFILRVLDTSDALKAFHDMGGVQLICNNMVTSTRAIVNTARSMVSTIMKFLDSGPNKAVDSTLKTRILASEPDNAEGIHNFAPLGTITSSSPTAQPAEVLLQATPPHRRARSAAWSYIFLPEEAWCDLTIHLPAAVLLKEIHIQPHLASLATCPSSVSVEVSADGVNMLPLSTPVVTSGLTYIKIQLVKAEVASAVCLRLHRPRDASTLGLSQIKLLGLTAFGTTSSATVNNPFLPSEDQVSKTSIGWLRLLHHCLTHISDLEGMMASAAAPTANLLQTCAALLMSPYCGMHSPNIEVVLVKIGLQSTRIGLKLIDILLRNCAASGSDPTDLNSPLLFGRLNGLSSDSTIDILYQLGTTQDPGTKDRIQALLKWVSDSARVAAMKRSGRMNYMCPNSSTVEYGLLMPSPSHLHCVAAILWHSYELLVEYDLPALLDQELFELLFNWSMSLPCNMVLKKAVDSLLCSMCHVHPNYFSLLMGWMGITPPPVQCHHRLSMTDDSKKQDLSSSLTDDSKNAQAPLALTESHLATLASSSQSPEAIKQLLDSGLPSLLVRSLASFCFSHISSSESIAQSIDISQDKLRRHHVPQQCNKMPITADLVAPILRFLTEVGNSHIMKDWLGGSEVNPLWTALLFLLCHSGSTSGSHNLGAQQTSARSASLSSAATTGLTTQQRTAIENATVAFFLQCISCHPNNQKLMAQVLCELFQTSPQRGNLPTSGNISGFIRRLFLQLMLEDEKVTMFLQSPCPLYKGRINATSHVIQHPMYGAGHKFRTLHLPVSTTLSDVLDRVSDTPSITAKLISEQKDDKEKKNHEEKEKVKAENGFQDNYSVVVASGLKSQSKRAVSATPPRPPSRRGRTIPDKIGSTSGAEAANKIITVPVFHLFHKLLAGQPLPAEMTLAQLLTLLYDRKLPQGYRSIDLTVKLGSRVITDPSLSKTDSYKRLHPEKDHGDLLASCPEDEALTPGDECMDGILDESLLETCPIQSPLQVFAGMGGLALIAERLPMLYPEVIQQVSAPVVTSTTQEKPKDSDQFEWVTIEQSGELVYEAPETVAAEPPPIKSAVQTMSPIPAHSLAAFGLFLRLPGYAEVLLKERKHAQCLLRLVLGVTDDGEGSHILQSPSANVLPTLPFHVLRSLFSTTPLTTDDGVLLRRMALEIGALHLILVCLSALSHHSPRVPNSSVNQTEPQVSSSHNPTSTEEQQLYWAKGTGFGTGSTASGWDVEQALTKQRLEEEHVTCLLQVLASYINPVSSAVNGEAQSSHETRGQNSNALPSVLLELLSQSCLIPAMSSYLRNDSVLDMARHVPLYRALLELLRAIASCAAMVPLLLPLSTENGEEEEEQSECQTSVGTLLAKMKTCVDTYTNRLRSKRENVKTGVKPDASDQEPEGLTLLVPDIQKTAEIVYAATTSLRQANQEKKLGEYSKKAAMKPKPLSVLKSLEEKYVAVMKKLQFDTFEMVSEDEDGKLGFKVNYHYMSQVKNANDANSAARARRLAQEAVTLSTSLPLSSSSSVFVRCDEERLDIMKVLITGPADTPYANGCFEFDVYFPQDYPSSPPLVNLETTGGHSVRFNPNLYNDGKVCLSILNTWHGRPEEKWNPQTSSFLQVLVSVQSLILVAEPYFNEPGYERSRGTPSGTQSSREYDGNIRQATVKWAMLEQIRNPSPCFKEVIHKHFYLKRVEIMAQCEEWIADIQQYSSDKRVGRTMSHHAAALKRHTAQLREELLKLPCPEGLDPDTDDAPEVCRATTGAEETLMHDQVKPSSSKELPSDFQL
UniProt Q3SXM5, sequence (Q3SXM5 whole entry): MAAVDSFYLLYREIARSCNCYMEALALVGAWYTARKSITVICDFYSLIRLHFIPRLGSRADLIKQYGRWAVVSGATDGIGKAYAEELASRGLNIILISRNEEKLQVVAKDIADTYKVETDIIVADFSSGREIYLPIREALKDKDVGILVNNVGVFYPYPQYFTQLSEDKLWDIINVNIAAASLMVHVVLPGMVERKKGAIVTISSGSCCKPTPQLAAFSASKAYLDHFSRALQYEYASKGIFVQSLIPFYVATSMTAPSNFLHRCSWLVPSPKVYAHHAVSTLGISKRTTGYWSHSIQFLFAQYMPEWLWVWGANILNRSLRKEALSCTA

Target | thermal stability z-score (potassium arsenate) | thermal stability z-score (lipoamide; [1]) | thermal stability z-score (lipoamide; arsenate co-treatment: none)
CST3 (UniProt P01034) | 0.472 | -0.744 | -0.0182
ELF1 (UniProt P32519) | -0.287 | -0.422 | -0.185
STT3A (UniProt P46977) | -0.218 | -2.6 | -1.98
HSDL1 (UniProt Q3SXM5) | -1.43 | -0.0659 | -0.0958
RPS7 (UniProt P62081) | -0.493 | 0.514 | 0.322
RNF20 (UniProt Q5VTR2) | -0.112 | -0.218 | -0.026
RING1 (UniProt Q06587) | -0.0985 | -0.0364 | 0.0555
BRI3BP (UniProt Q8WY22) | -0.544 | 0.227 | 0.0879
ABI2 (UniProt Q9NYB9) | 0.72 | 0.0724 | 0.978
DMAP1 (UniProt Q9NPF5) | -0.644 | -0.551 | -0.38
SMARCE1 (UniProt Q969G3) | 0.125 | 1.96 | 1.55
CHTF8 (UniProt P0CG13) | 0.975 | 1.3 | 0.577
MID1IP1 (UniProt Q9NPA3) | 0.151 | -0.135 | 0.206
ITPRIP (UniProt Q8IWB1) | -0.289 | -0.976 | -0.936
GTF2H3 (UniProt Q13889) | -0.106 | 0.0675 | -0.229
SERF2 (UniProt P84101) | -0.113 | 0.715 | 0.165
DIS3 (UniProt Q9Y2L1) | -1.52 | -0.727 | -0.422
FAM96B (UniProt Q9Y3D0) | -0.128 | -0.113 | -0.0578
PSMA4 (UniProt P25789) | 0.411 | 1.29 | 0.788
ADCK4 (UniProt Q96D53) | -0.165 | -2.27 | -0.801
SCO2 (UniProt O43819) | 0.538 | -0.169 | 0.0623
CHUK (UniProt O15111) | 0.578 | 0.887 | 0.727
PPWD1 (UniProt Q96BP3) | -0.656 | -0.218 | -0.513
HNRNPA3 (UniProt P51991) | -0.49 | 0.238 | 0.437

Target | thermal stability z-score (potassium arsenate) | thermal stability z-score (lipoamide; [1]) | thermal stability z-score (lipoamide; arsenate co-treatment: none)
TM7SF3 (UniProt Q9NS93) | 0.533 | -0.0176 | -0.523
EXOSC8 (UniProt Q96B26) | -0.573 | 0.692 | -0.359
IPO7 (UniProt O95373) | -0.418 | 2.63 | 0.4
THRAP3 (UniProt Q9Y2W1) | -0.985 | 1.84 | 0.438
DNAJB4 (UniProt Q9UDY4) | -0.708 | -0.368 | -0.146
AMDHD2 (UniProt Q9Y303) | 1.3 | 0.0258 | 0.186
MED1 (UniProt Q15648) | 0.125 | 0.948 | 0.662
IGF2R (UniProt P11717) | -0.374 | -1.48 | -0.964
SH3GLB2 (UniProt Q9NR46) | 0.364 | -0.0875 | 0.468
ADO (UniProt Q96SZ5) | -0.401 | 1.62 | 1.31
FASTKD2 (UniProt Q9NYY8) | 0.445 | -0.22 | 0.158
MOSPD2 (UniProt Q8NHP6) | -0.254 | -0.58 | -0.383
BIRC6 (UniProt Q9NR09) | 0.194 | -0.51 | -0.149
EIF4ENIF1 (UniProt Q9NRA8) | -0.0325 | -0.03 | 0.00167
SRSF4 (UniProt Q08170) | -0.0178 | 1.95 | 1.28
SMYD2 (UniProt Q9NRG4) | 1.28 | 0.863 | 0.716
SLC39A6 (UniProt Q13433) | 0.868 | -0.119 | 0.454
PEX3 (UniProt P56589) | -0.285 | -0.415 | -0.151
XPNPEP1 (UniProt Q9NQW7) | -0.738 | 1.5 | 0.794
WDR34 (UniProt Q96EX3) | -0.776 | -0.251 | -0.215
RBM17 (UniProt Q96I25) | 0.243 | 0.528 | 0.441
RPL10 (UniProt P27635) | -0.781 | 0.0934 | -0.15
COPE (UniProt O14579) | 0.0279 | 0.165 | 0.681
LRRC41 (UniProt Q15345) | -0.546 | -0.134 | -0.26

Target | thermal stability z-score (potassium arsenate) | thermal stability z-score (lipoamide; [1]) | thermal stability z-score (lipoamide; arsenate co-treatment: none)
HSPA8 (UniProt P11142) | -0.107 | -0.0626 | 0.357
CD3EAP (UniProt O15446) | -3.13 | 0.354 | -0.286
NDUFAF1 (UniProt Q9Y375) | -0.0374 | -0.593 | -0.335
AP1G2 (UniProt O75843) | 0.167 | 0.17 | 0.114
SMYD5 (UniProt Q6GMV2) | 0.224 | -0.19 | -0.177
TCEAL4 (UniProt Q96EI5) | -0.306 | 0.347 | 0.201
CHMP1B (UniProt Q7LBR1) | 0.0259 | -0.234 | 0.171
GTF2H1 (UniProt P32780) | -0.0702 | -0.0618 | -0.0128
CREBBP (UniProt Q92793) | -0.693 | 0.397 | -0.0649
NARF (UniProt Q9UHQ1) | -0.0435 | 0.102 | -0.133
ASPSCR1 (UniProt Q9BZE9) | -0.304 | 0.207 | -0.218
COA7 (UniProt Q96BR5) | -0.364 | 0.203 | 0.0661
TMED2 (UniProt Q15363) | 0.624 | -0.867 | -1.06
PHB (UniProt P35232) | 0.222 | 0.394 | 0.55
CDC6 (UniProt Q99741) | -0.258 | -0.0605 | 0.0639
CDK13 (UniProt Q14004) | -0.0661 | 0.155 | -0.0381
HSPA4L (UniProt O95757) | 0.388 | 0.0785 | -0.0888
SUZ12 (UniProt Q15022) | -0.186 | -0.0278 | -0.101
VPS39 (UniProt Q96JC1) | 0.407 | -0.937 | -0.6
PLCD3 (UniProt Q8N3E9) | 0.0088 | 0.235 | 0.151
USP36 (UniProt Q9P275) | -0.265 | 0.216 | -0.0229
BRE (UniProt Q9NXR7) | 0.319 | 0.462 | -0.15
EDC3 (UniProt Q96F86) | -0.555 | -0.713 | -0.608
